In brackets after ≈: the same amount, converted by molar mass.
Legend:
[1] = Solubility of SOL at different pH; assay type: physicochemical
Description: It has been discovered herein that the solubility of the compounds described herein generally decreases with increasing pH. […] It has also been discovered herein that at certain pH levels, a stable aqueous suspension of the compounds may be prepared. That suspension may also be prepared from a reconstitutable powder for oral suspension (POS). However, it has also been discovered that at certain limiting pH levels, a threshold amount of the compounds described herein are in solution and therefore such an oral suspension may have a bitter taste that compromises the efficacy thereof, such as due to poor patient compliance.

[2] = Stability of SOL in the presence of excipients; assay type: physicochemical
Description: It has unexpectedly been discovered that compounds described herein, such as SOL, are unstable in the presence of high relative amounts of sucralose. In another embodiment, the weight/weight ratio of API, such as SOL to sucralose is greater than about 3, greater than about 4, greater than about 5, greater than about 6, greater than about 7, greater than about 8, greater than about 9, or greater than about 10. Illustratively, the POS and suspension formulations described herein include one of more souring agents. It has unexpectedly been discovered that compounds described herein, such as SOL, are unstable in the presence of high relative amounts of citric acid. In another embodiment, the weight/weight ratio of API, such as SOL to citric acid is greater than about 50, greater than about 60, greater than about 70, greater than about 80, or greater than about 90. In another embodiment, the POS and suspension formulations described herein are substantially free of, or free of citric acid.

solubility ([1]; pH 5.7, aqueous buffer): 68000 µg/mL (≈ 80500 µM)
solubility ([1]; pH 6.2, aqueous buffer): 860 µg/mL (≈ 1020 µM)
solubility ([1]; pH 7.5, aqueous buffer): 70 µg/mL (≈ 82.8 µM)
stability in the presence of citric acid ([2]; high relative amounts of citric acid): unstable
stability in the presence of sucralose ([2]; high relative amounts of sucralose): unstable
Structure (SMILES): CC[C@H]1OC(=O)[C@@](C)(F)C(=O)[C@H](C)[C@@H](O[C@@H]2O[C@H](C)C[C@H](N(C)C)[C@H]2O)[C@](C)(OC)C[C@@H](C)C(=O)[C@H](C)[C@H]2N(CCCCn3cc(-c4cccc(N)c4)nn3)C(=O)O[C@]12C [SOL, solithromycin]

Reference: US20170224664A1, “POWDER ORAL SUSPENSION FORMULATIONS OF ANTIBACTERIAL AGENTS” (Cempra Pharmaceuticals, Inc., priority 2014, published 2017)
